These results are taken from US9540397B2, “BACE1 inhibitors” (Hoffmann-La Roche Inc., priority 2014, dated 2017).

The subject of assay [1] is Aβ40 in brain of wild-type mice. The assay is described as follows: Lowering of Aβ40 in brain of wild-type mice. It counts as in vivo. The settings on record: Mus musculus, po; female C57Bl/6J mice, 30 mg/kg per os, 4 h; brain Aβ40 related to the value in the vehicle group; read-out: Aβ40 (wt mice, brain). Here is the method:
Lowering of Aβ40 in Brain of Wild-Type Mice:
Animals and Housing Conditions.
Animals were maintained in a 12/12 h light/dark cycle, with lights starting at 6 a.m., and experiments were conducted during the light phase. Animal housing and experimental procedures were in line with ethical and legal guidelines and were authorized by local veterinary authorities.
Experiment. Female C57Bl/6J mice were treated with a dose of 30 mg/kg of the compounds, 3-4 animals per treatment group. The test compound was dissolved in 5% EtOH, 10% Solutol, and was applied per os at 10 mL/kg. After 4 h, the animals were sacrificed and brain and plasma were collected. The brain was cut into halves and immediately frozen on dry ice. Brain was used for measurement of Aβ40 and plasma was used for determination of compound exposure. […] Brain tissue was homogenized in 2% DEA buffer in a Roche MagnaLyser (20″, 4000 rpm) and subsequently centrifuged for 1 h at 100000 g. DEA was reduced to 0.2% in 50 mM NaCl and one-half of the DEA lysate was passed over an Oasis Solid phase extraction plate (Waters; cat. no. 186000679), which had been activated with MeOH and equilibrated in dH2O (1 mL each). After washes in 10% and 30% MeOH (1 mL each), the Aβ-peptides were eluted in 0.8 mL of 2% NH4OH in 90% MeOH. The eluate was dried over a N2 flow, and the dried sample was reconstituted in 30 μL of AlphaLISA assay buffer. Aβ40 was determined by an AlphaLISA assay (Perkin-Elmer). In a white 96-well, half area microplate (Perkin-Elmer cat. no. 6005561), 20 μL of the reconstituted sample were mixed with 5 μL of biotinylated BAP-24 (specific for C-terminus of Aβ40) (Brockhaus, M.; Grunberg, J.; Rohrig, S.; Loetscher, H.; Wittenburg, N.; Baumeister, R.; Jacobsen, H.; Haass, C. Caspasemediated cleavage is not required for the activity of presenilins in amyloidogenesis and NOTCH signaling. NeuroReport 1998, 9, 1481-1486.) stock=4.4 mg/mL, f.c.5.5 μg/mL), and 5 μL 252Q6 acceptor beads (252Q6 antibody, Invitrogen AMB0062) had been previously conjugated with AlphaLISA Acceptor beads (Perkin-Elmer cat. no. 6772002); final dilution 1:500). The mix was incubated for 1 h at RT in the dark. Then 20 μL of Streptavin-coated Donor Beads (Perkin-Elmer cat. no. 6760002, final dilution 1:125) were added and this final mix was incubated in the dark for another 30 min at RT before RFU was measured in an AlphaScreen Reader (Perkin-Elmer Envision 2104). The value obtained for Aβ40 in the treated animals was related to the value in the vehicle group and is given in %. Alternatively a commercial ELISA was used for Aβ40 determination (Wako ELISA: (“Human/Rat β Amyloid (40) ELISA kit Wako II”; cat nr. 294-64701) following the manufacture's instruction. Also here the Aβ-lowering efficacy was calculated as percentage of the vehicle group.

Assay [2] has as its target T1, BACE1 (Homo sapiens, UniProt P56817).
T1 construct: endogenous in cells; host or cells: HEK293 APP cells
The assay is described as follows: Cellular Aβ-lowering assay (Abeta 40 AlphaLISA, HEK293 APP cells). It counts as cell-based. The settings on record: 18-20 hrs incubation, Aβ40 in culture supernatant, read-out: BACE1 cell act. Aβ40 IC50. Here is the method:
Cellular Aβ-lowering assay:
The Abeta 40 AlphaLISA Assay can be used. The HEK293 APP cells were seeded in 96 well Microtiter plates in cell culture medium (Iscove's, plus 10% (v/v) fetal bovine serum, penicillin/streptomycin) to about 80% confluency and the compounds were added at a 3× concentration in ⅓ volume of culture medium (final DMSO concentration was kept at 1% v/v). After 18-20 hrs incubation at 37° C. and 5% CO2 in a humidified incubator, the culture supernatants were harvested for the determination of AP 40 concentrations using Perkin-Elmer Human Amyloid beta 1-40 (high specificity) Kit (Cat#AL275C).
In a Perkin-Elmer White Optiplate-384 (Cat#6007290), 2 ul culture supernatants were combined with 2 μl of a 10× AlphaLISA Anti-hAβ Acceptor beads+Biotinylated Antibody Anti-Aβ 1-40 Mix ([…]/5 nM). After 1 hour room temperature incubation, 16 μl of a 1.25× preparation of Streptavidin (SA) Donor beads (25 μg/mL) were added and incubated for 30 minutes in the Dark. Light Emission at 615 nm was then recorded using EnVision-Alpha Reader. Levels of Aβ 40 in the culture supernatants were calculated as percentage of maximum signal (cells treated with 1% DMSO without inhibitor). The IC50 values were calculated using the Excel XLfit software.
Background: Alpha assays give light when donor and acceptor beads are brought close together.

T1 sequence (P56817 46-501): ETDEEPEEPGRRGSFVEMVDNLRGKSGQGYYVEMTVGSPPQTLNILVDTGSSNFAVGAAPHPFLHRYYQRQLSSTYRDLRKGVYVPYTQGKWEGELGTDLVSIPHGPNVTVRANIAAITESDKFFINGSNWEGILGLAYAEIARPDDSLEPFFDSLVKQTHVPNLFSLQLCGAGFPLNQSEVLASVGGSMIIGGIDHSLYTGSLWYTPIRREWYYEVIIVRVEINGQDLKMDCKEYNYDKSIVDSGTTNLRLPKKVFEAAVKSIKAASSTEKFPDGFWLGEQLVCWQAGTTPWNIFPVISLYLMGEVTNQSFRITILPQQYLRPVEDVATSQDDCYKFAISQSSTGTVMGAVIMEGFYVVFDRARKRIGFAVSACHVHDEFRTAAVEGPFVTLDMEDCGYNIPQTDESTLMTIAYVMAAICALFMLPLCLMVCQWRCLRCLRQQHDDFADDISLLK

On to `COc1cnc(C(=O)Nc2ccc(F)c([C@@]3(C)N=C(N)C(C)(C)[S@]4(=O)=NCCC[C@H]34)n2)cn1` [Example 2BA, N-(6-((4aR,5R,9S)-7-amino-5,8,8-trimethyl-9-oxido-2,3,4,4a,5,8-hexahydro-[1,4]thiazino[2,1-f][1,2]thiazin-5-yl)-5-fluoropyridin-2-yl)-5-methoxypyrazine-2-carboxamide], for which the response vs control in vivo at 30 mg/kg in assay [1] is 87%. The IC50 in assay [2] is 21.7 nM.
For the compound `Cc1cc(F)cnc1C(=O)Nc1ccc(F)c([C@@]2(C)N=C(N)C(C)(C)[S@@]3(=O)=NCCC[C@H]23)n1` [Example 4AA, N-(6-((4aR,5R,9R)-7-amino-5,8,8-trimethyl-9-oxido-2,3,4,4a,5,8-hexahydro-[1,4]thiazino[2,1-f][1,2]thiazin-5-yl)-5-fluoropyridin-2-yl)-5-fluoro-3-methylpicolinamide], the response vs control in vivo at 30 mg/kg in assay [1] came out at 80%. In addition, in assay [2], the IC50 was 18.1 nM.
On to `CC1(C)C(N)=N[C@](C)(c2nc(NC(=O)c3ncc(Cl)cc3Cl)ccc2F)[C@@H]2CCN=[S@@]21=O` [Example 29AB, N-(6-((3aS,4R,8R)-6-amino-4,7,7-trimethyl-8-oxido-3,3a,4,7-tetrahydro-2H-isothiazolo[1,5-a][1,4]thiazin-4-yl)-5-fluoropyridin-2-yl)-3,5-dichloropicolinamide], for which the response vs control in vivo at 30 mg/kg in assay [1] is 88%. Moreover, in assay [2], the IC50 was 0.6 nM.
Regarding `CC1(C)C(N)=N[C@](C)(c2nc(NC(=O)c3ccc(F)cn3)ccc2F)[C@@H]2CCN=[S@@]21=O` [Example 27AB, N-(6-((3aS,4R,8R)-6-amino-4,7,7-trimethyl-8-oxido-3,3a,4,7-tetrahydro-2H-isothiazolo[1,5-a][1,4]thiazin-4-yl)-5-fluoropyridin-2-yl)-5-fluoropicolinamide], the response vs control in vivo at 30 mg/kg in assay [1] turned out to be 92%. Besides, the IC50 in assay [2] was determined as 15 nM.
As to `Cc1cc(C#N)cnc1C(=O)Nc1ccc(F)c([C@@]2(C)N=C(N)C(C)(C)[S@@]3(=O)=NCC[C@@H]23)n1` [Example 9AB, N-(6-((3aS,4R,8R)-6-amino-4,7,7-trimethyl-8-oxido-3,3a,4,7-tetrahydro-2H-isothiazolo[1,5-a][1,4]thiazin-4-yl)-5-fluoropyridin-2-yl)-5-cyano-3-methylpicolinamide], the response vs control in vivo at 30 mg/kg in assay [1] amounted to 40%. In assay [2], the IC50 worked out at 0.6 nM.
As to `CC1(C)C(N)=N[C@](C)(c2nc(NC(=O)c3ccc(C#N)cn3)ccc2F)[C@H]2CC(F)(F)CN=[S@@]21=O` [Example 34AA, N-(6-((4aR,5R,9R)-7-amino-3,3-difluoro-5,8,8-trimethyl-9-oxido-2,3,4,4a,5,8-hexahydro-[1,4]thiazino[2,1-f][1,2]thiazin-5-yl)-5-fluoropyridin-2-yl)-5-cyanopicolinamide], the response vs control in vivo at 30 mg/kg in assay [1] was 113%. For the same compound, the IC50 in assay [2] was found to be 9.8 nM.
With `CC1(C)C(N)=N[C@](C)(c2nc(NC(=O)c3ncc(C#N)cc3Cl)ccc2F)[C@H]2CC(F)(F)CN=[S@@]21=O` [Example 37AA, N-(6-((4aR,5R,9R)-7-amino-3,3-difluoro-5,8,8-trimethyl-9-oxido-2,3,4,4a,5,8-hexahydro-[1,4]thiazino[2,1-f][1,2]thiazin-5-yl)-5-fluoropyridin-2-yl)-3-chloro-5-cyanopicolinamide], in assay [1], the response vs control in vivo at 30 mg/kg was found to be 73%. The IC50 in assay [2] was 1.6 nM.
In the same order, the values of `CC1(C)C(N)=N[C@](C)(c2nc(NC(=O)c3ccc(OCC(F)(F)C(F)F)cn3)ccc2F)[C@@H]2CCN=[S@@]21=O` [Example 15AB, N-(6-((3aS,4R,8R)-6-amino-4,7,7-trimethyl-8-oxido-3,3a,4,7-tetrahydro-2H-isothiazolo[1,5-a][1,4]thiazin-4-yl)-5-fluoropyridin-2-yl)-5-(2,2,3,3-tetrafluoropropoxy)picolinamide] are 100% and 146 nM.
With `Cc1cc(C#N)cnc1C(=O)Nc1ccc(F)c([C@@]2(C)N=C(N)C(C)(C)[S@]3(=O)=NCCC[C@@H]23)n1` [Example 1BB, N-(6-((4aS,5R,9S)-7-amino-5,8,8-trimethyl-9-oxido-2,3,4,4a,5,8-hexahydro-[1,4]thiazino[2,1-f][1,2]thiazin-5-yl)-5-fluoropyridin-2-yl)-5-cyano-3-methylpicolinamide], the response vs control in vivo at 30 mg/kg in assay [1] was 93%. The IC50 in assay [2] worked out at 3.9 nM.
As to `COc1cnc(C(=O)Nc2ccc(F)c([C@@]3(C)N=C(N)C(C)(C)[S@@]4(=O)=NCCC[C@H]34)n2)cn1` [Example 2AA, N-(6-((4aR,5R,9R)-7-amino-5,8,8-trimethyl-9-oxido-2,3,4,4a,5,8-hexahydro-[1,4]thiazino[2,1-f][1,2]thiazin-5-yl)-5-fluoropyridin-2-yl)-5-methoxypyrazine-2-carboxamide], the response vs control in vivo at 30 mg/kg in assay [1] amounted to 83%. Further, in assay [2], the IC50 was 19.7 nM.
For the compound `Cc1cc(C#N)cnc1C(=O)Nc1ccc(F)c([C@@]2(C)N=C(N)C(C)(C)[S@@]3(=O)=NCC(F)(F)C[C@H]23)n1` [Example 32AA, N-(6-((4aR,5R,9R)-7-amino-3,3-difluoro-5,8,8-trimethyl-9-oxido-2,3,4,4a,5,8-hexahydro-[1,4]thiazino[2,1-f][1,2]thiazin-5-yl)-5-fluoropyridin-2-yl)-5-cyano-3-methylpicolinamide], the response vs control in vivo at 30 mg/kg in assay [1] turned out to be 53%. Further, the IC50 in assay [2] amounted to 1.2 nM.
In the same order, the values of `CC1(C)C(N)=N[C@](C)(c2nc(NC(=O)c3ccc(OCF)cn3)ccc2F)[C@@H]2CCN=[S@@]21=O` [Example 13AB, N-(6-((3aS,4R,8R)-6-amino-4,7,7-trimethyl-8-oxido-3,3a,4,7-tetrahydro-2H-isothiazolo[1,5-a][1,4]thiazin-4-yl)-5-fluoropyridin-2-yl)-5-(fluoromethoxy)picolinamide] are 86% and 9.8 nM.
Consider `Cc1cc(C#N)cnc1C(=O)Nc1ccc(F)c([C@@]2(C)N=C(N)C(C)(C)[S@@]3(=O)=NCC4(CC4)C[C@H]23)n1` [Example 48AA, N-(6-((4aR,5R,9R)-7-amino-5,8,8-trimethyl-9-oxido-4,4a,5,8-tetrahydro-2H-spiro[[1,4]thiazino[2,1-f][1,2]thiazine-3,1′-cyclopropan]-5-yl)-5-fluoropyridin-2-yl)-5-cyano-3-methylpicolinamide], for which the response vs control in vivo at 30 mg/kg in assay [1] is 61%. The IC50 in assay [2] was 0.3 nM.
On to `Cc1cc(C#N)cnc1C(=O)Nc1ccc(F)c([C@@]2(C)N=C(N)C(C)(C)[S@@]3(=O)=NCCC[C@H]23)n1` [Example 1AA, N-(6-((4aR,5R,9R)-7-amino-5,8,8-trimethyl-9-oxido-2,3,4,4a,5,8-hexahydro-[1,4]thiazino[2,1-f][1,2]thiazin-5-yl)-5-fluoropyridin-2-yl)-5-cyano-3-methylpicolinamide], for which the response vs control in vivo at 30 mg/kg in assay [1] was 38%. The IC50 in assay [2] is 0.6 nM.

A word on the IC50: it is the concentration that gives 50% inhibition.
